Tested on: C57/b16 mice
Experiment: acetone-ether-water (AEW) induced pruritus in a mouse model, spontaneous scratching recorded for 60 min
Type: in vivo
Protocol: The objective of this study was to examine the efficacy of topical formulations of Tapinarof in the strength of 0.5%, 1% and 2% as a treatment in acetone-ether-water (AEW) induced pruritus in a mouse model.
The model of inducing itching sensation was done by treating C57/b16 mice with AEW as was conducted in other studies in the past.
The mice were shaved 24 h prior to study to expose the skin. For 5 days, twice a day (at least 3-4 hours apart), mice were applied acetone and ether (mixed at 1:1 ratio) on the right cheek for 30 seconds, and immediately afterwards applied on cheek water for 30 seconds.
Day 1-3: AEW was treated twice (at least 3-4 hours apart), AE 30s, Water 30s.
Day 4-5: AEW was treated twice (at least 3-4 hours apart), AE 30s, Water 30s, topical administration of vehicle, tapinarof 0.5%, tapinarof 1%, tapinarof 2% (−20 h before evaluation) and randomization.
Day 5: AEW was treated once, topical administration of vehicle, tapinarof 0.5%, tapinarof 1%, and tapinarof 2% (−2 h before evaluation), positive control dosing (−30 min), video record (evaluation), animal weighing, sacrificing, plasma collection and skin sample collection.
Immediately after AEW application on day 5, the mice were put into acrylic chambers and behavior was recorded for 60 min using a video camera under unmanned conditions to assess spontaneous scratching. Videos were manually scored for time spent spontaneously scratching the affected cheek. Scratching is defined as an episode in which the mouse lifted its paw and scratched continuously for any length of time until the paw returned to the floor. Only scratches of the affected cheek with their hind paws were counted. Other scratching behaviors were disregarded. The number of scratches was summarized for each animal and the average number per group was calculated. In addition, the scratching time (seconds) was also evaluated, and the average of scratching time was calculated. Data are expressed as the mean±S.E.M. statistically significant differences between two groups were evaluated using paired or non-paired Student's t-test as required.

CC(C)c1c(O)cc(/C=C/c2ccccc2)cc1O [tapinarof]
effect on scratching compared with the positive control (topical formulation 0.5% w/w): comparable to the positive control
effect over the vehicle (scratching sessions and periods) (topical formulation 0.5% w/w, applied -20 h and -2 h before evaluation): ~40%
effect on scratching sessions and periods (topical formulation 1% w/w (percent increased twice versus 0.5%)): did not reduce the scratching sessions and periods
effect on scratching sessions and periods (topical formulation 2% w/w (percent increased four times versus 0.5%)): did not reduce the scratching sessions and periods

— patent US20210346279A1, “COMPOSITIONS COMPRISING TAPINAROF FOR THE TREATMENT OF PRURITIS” (Sol-Gel Technologies Ltd., priority 2020, published 2021)
